Where “and” joins values, the source holds several entries; their conditions need not be identical. Identical values can stand only once. Marks after values point to notes of the source that are not given here.
Experiments:
[1] = system: RTX-induced mouse ear edema; test: Inhibition of resiniferatoxin (RTX)-induced inflammation (edema) of the mouse ear; assay type: in vivo; set-up: Mean (edema): unit not given here; settings: for % Inhibition of Edema (RTX-induced edema in mouse ears): Dose 50 μg/ear; for activity in inhibition of RTX-induced edema: in words; for % Inh. Of Edema / Mean (edema) / Mean (difference, edema) / Difference (left ear minus right ear), single animals: RTX 0.1 μg/ear; for ED50 for inhibition of RTX-induced edema: topical, with RTX
Experimental: Induction of mouse ear edema can be conducted according to known methods. See Inoue, 1-f., N. Nagata, Y. Koshffiara (1993), which is herein incorporated by reference. Compounds to be tested for anti-neurogenic inflammatory activity are topically applied in acetone to the ears of mice in a solution that includes the edema-causing irritant resiniferatoxin (RTX). […] After a 30-minute incubation, the mice are sacrificed, the ears removed, and bores taken and weighed. Edema is measured by subtracting the weight of the right ear (acetone control) from the weight of the left ear (treated). Results are recorded as % decrease (inhibition) or % increase (potentiation) in edema relative to the control group edema.
Soritin B was tested for anti-neurogenic inflammatory activity by topically applying in acetone to the ears of mice in a solution that includes the edema-causing irritant resiniferatoxin (RTX) as provided above. See Inoue, 1-f., N. Nagata, Y. Koshffiara (1993), which is herein incorporated by reference. […] After a 30-minute incubation, the mice are sacrificed, the ears removed, and bores taken and weighed. Edema was measured by subtracting the weight of the right ear (acetone control) from the weight of the left ear (treated). Results were recorded as % decrease (inhibition) or % increase (potentiation) in edema relative to the control group edema.

[2] = system: PMA-induced mouse ear edema; test: Inhibition of PMA-induced inflammation (edema) of the mouse ear; assay type: in vivo; set-up: Mean (edema): unit not given here; settings: for ED50, topical inhibition of PMA-induced mouse ear edema: with PMA; for Difference (left ear minus right ear), single animals: listed as Compound I
Experimental: (§1) The test compound and a known inflammatory agent, phorbol myristate acetate (PMA), are topically applied simultaneously to the left ears of mice. Three hours and 20 minutes following application, the mice are sacrificed. Both left ears and right ears are removed and standard sized bores taken. Edema (inflammation) is measured as the difference in weight between left and right ears. See Van Arman, C. G. (1974) Clin. Pharmacol. Ther. 16:900-904, which is herein incorporated by reference.
as §1, with “Soritin B and” for “The test compound and”, “(PMA), were” for “(PMA), are”, “mice were” for “mice are”, “ears were” for “ears are”, “(inflammation) was” for “(inflammation) is”

[3] = Soritin B assay: coloration in solution; assay type: physicochemical; settings: dissolved in acetone
[4] = 3.12 μg/ear, PMA 2.0 μg/ear, n = 15
[5] = 6.25 μg/ear, PMA 2.0 μg/ear, n = 15
[6] = 12.5 μg/ear, PMA 2.0 μg/ear, n = 15
[7] = 25 μg/ear, PMA 2.0 μg/ear, n = 15
[8] = 50 μg/ear, listed as Compound I

c1ccc2c(Cc3c[nH]c4ccccc34)c[nH]c2c1 [HB-236, bis(3,3′indolyl)methane]
% Inhibition of Edema (RTX-induced edema in mouse ears) [1]: 59.1% | activity in inhibition of RTX-induced edema [1]: show activity

C[C@]12CCC(=O)C=C1CC[C@@H]1[C@@H]2[C@@H](O)C[C@@]2(C)[C@H]1CC[C@]2(O)C(=O)CO [Hydrocortisone, hydrocortisone, reference compound]
ED50, topical inhibition of PMA-induced mouse ear edema [2]: 20 μg/ear

O=C(c1nc(-c2c[nH]c3ccccc23)c[nH]1)c1c[nH]c2cc(O)ccc12 [Topsentin, topsentin, reference compound]
ED50, topical inhibition of PMA-induced mouse ear edema [2]: 15 μg/ear

COC(=O)C(c1c[nH]c2ccccc12)c1c[nH]c2ccccc12 [Soritin B, bis-(1H-indol-3-yl)-acetic acid methyl ester]
% Inh. Of Edema [2, 4]: 14.6% | Mean (edema) [2, 4]: 10.0** | % Inh. Of Edema [2, 5]: 17.1% | Mean (edema) [2, 5]: 9.7** | % Inh. Of Edema [2, 6]: 27.1% | Mean (edema) [2, 6]: 8.6* | % Inh. Of Edema [2, 7]: 50.0% | Mean (edema) [2, 7]: 5.9* | Mean (edema) ([2]; 50 μg/ear, PMA 2.0 μg/ear, n = 15): 3.4* | ED50, topical inhibition of PMA-induced mouse ear edema [2]: 24.2 μg/ear | % Inh. Of Edema ([1]; 3.12 μg/ear, n = 15): 7.7% | Mean (edema) ([1]; 3.12 μg/ear, n = 15): 9.1 | % Inh. Of Edema ([1]; 6.25 μg/ear, n = 15): 34.3% | Mean (edema) ([1]; 6.25 μg/ear, n = 15): 6.5* | % Inh. Of Edema ([1]; 12.5 μg/ear, n = 15): 61.0% | Mean (edema) ([1]; 12.5 μg/ear, n = 15): 3.2* | % Inh. Of Edema ([1]; 25 μg/ear, n = 14): 79.2% | Mean (edema) ([1]; 25 μg/ear, n = 14): 1.7* | Mean (edema) ([1]; 50 μg/ear, n = 15): 1.0* | ED50 for inhibition of RTX-induced edema [1]: 10.9 μg/ear | color in solution [3]: light amber color

O=CC(c1c[nH]c2ccccc12)c1c[nH]c2ccccc12 [HB-237, 2,2-bis(3,3′indolyl) acetaldehyde]
% Inhibition of Edema (RTX-induced edema in mouse ears) [1]: 50.1% | activity in inhibition of RTX-induced edema [1]: show activity

COc1ccc2c(c1)c(CC(=O)O)c(C)n2C(=O)c1ccc(Cl)cc1 [Indomethacin, indomethacin, reference compound]
ED50, topical inhibition of PMA-induced mouse ear edema [2]: 250 μg/ear

CC1=C(CC/C(C)=C/CCC2=CC[C@H](C3=CC(=O)O[C@H]3O)O[C@H]2O)C(C)(C)CCC1 [Manoalide, manoalide, reference compound]
ED50, topical inhibition of PMA-induced mouse ear edema [2]: 100 μg/ear

O=C(O)C(c1c[nH]c2ccccc12)c1c[nH]c2ccccc12 [Soritin A, bis-(1H-indol-3-yl)-acetic acid]
% Inh. Of Edema ([2]; 3.12 μg/ear, PMA 2 μg/ear): 52.9% | Mean (difference, edema) ([2]; 3.12 μg/ear, PMA 2 μg/ear): 6.4 mg | Difference (left ear minus right ear), single animals ([2]; 3.12 μg/ear, PMA 2 μg/ear): 4.0 mg and 8.7 mg (2×) and 4.3 mg | % Inh. Of Edema ([2]; 6.25 μg/ear, PMA 2 μg/ear): 75.1% | Mean (difference, edema) ([2]; 6.25 μg/ear, PMA 2 μg/ear): 3.4 mg | Difference (left ear minus right ear), single animals ([2]; 6.25 μg/ear, PMA 2 μg/ear): 1.2 mg and 4.5 mg and 2.4 mg and 5.5 mg | % Inh. Of Edema ([2]; 12.5 μg/ear, PMA 2 μg/ear): 77.3% | Mean (difference, edema) ([2]; 12.5 μg/ear, PMA 2 μg/ear): 3.1 mg | Difference (left ear minus right ear), single animals ([2]; 12.5 μg/ear, PMA 2 μg/ear): 4.1 mg and 1.9 mg and 1.2 mg and 5.2 mg | % Inh. Of Edema ([2]; 25 μg/ear, PMA 2 μg/ear): 84.9% | Mean (difference, edema) ([2]; 25 μg/ear, PMA 2 μg/ear): 2.1 mg | Difference (left ear minus right ear), single animals ([2]; 25 μg/ear, PMA 2 μg/ear): 1.7 mg and 3.4 mg and 0.4 mg and 2.8 mg | % Inh. Of Edema ([2]; 50 μg/ear, PMA 2 μg/ear): 87.5% | Mean (difference, edema) ([2]; 50 μg/ear, PMA 2 μg/ear): 1.7 mg | Difference (left ear minus right ear), single animals ([2]; 50 μg/ear, PMA 2 μg/ear): 1.6 mg and 2.2 mg and 1.3 mg and 1.7 mg | potency in reducing PMA-induced mouse ear edema relative to known anti-inflammatories ([2]; in words): greater potency than the known anti-inflammatories hydrocortisone, indomethacin, manoalide and topsentin | ED50, topical inhibition of PMA-induced mouse ear edema [2]: 1.3 μg/ear | % Inh. Of Edema ([1]; 3.12 μg/ear): 49.9% | Mean (difference, edema) ([1]; 3.12 μg/ear): 6.0 mg | Difference (left ear minus right ear), single animals ([1]; 3.12 μg/ear, listed as Compound I): 6.0 mg (2×) and 6.6 mg and 7.1 mg and 4.1 mg and 6.3 mg | % Inh. Of Edema ([1]; 6.25 μg/ear): 33.6% | Mean (difference, edema) ([1]; 6.25 μg/ear): 8.0 mg | Difference (left ear minus right ear), single animals ([1]; 6.25 μg/ear, listed as Compound I): 6.0 mg and 11.2 mg and 7.3 mg and 10.1 mg and 8.3 mg and 5.0 mg | % Inh. Of Edema ([1]; 12.5 μg/ear): 76.8% | Mean (difference, edema) ([1]; 12.5 μg/ear): 2.8 mg | Difference (left ear minus right ear), single animals ([1]; 12.5 μg/ear, listed as Compound I): 3.8 mg and 3.6 mg and 3.1 mg and 1.1 mg and 1.7 mg and 3.4 mg | % Inh. Of Edema ([1]; 25 μg/ear): 87.9% | Mean (difference, edema) ([1]; 25 μg/ear): 1.5 mg | Difference (left ear minus right ear), single animals ([1]; 25 μg/ear, listed as Compound I): 4.1 mg and 0.2 mg and 2.1 mg and 0.6 mg and 0.3 mg | Mean (difference, edema) ([1]; 50 μg/ear): 0.3 mg | % Inh. Of Edema [1, 8]: 97.7% | Difference (left ear minus right ear), single animals [1, 8]: 0.1 mg and −0.2 mg (2×) and 1.5 mg | % Inh. Of Edema ([1]; 50 μg/ear, listed as Soritin A (I)): approximately 97.7% | % Inhibition of Edema (RTX-induced edema in mouse ears) [1]: 97.7% | ED50 for inhibition of RTX-induced edema [1]: 5.1 μg/ear

Reference: patent publication US6589975B2, “Synthetic compounds for treatment of inflammation” (The Regents of the University of California, priority 1998, dated 2003)
